# Paper PMC7482797 (2020)
# Tests used:
# [1] = tested on: c-KIT2 GQ (DNA, G4) CGGGCGGGCGCGAGGGAGGGG; experiment: fluorescence titration, 640 nm; conditions: 100 mM KCl or NaCl (so in the source); 20 mM PBS, pH 7.4; 1 µM TGP18; one-site fit
# [2] = tested on: VEGF GQ (DNA, G4) GGGGGCGGGCCGGGGGCGGGGTCCCGGCGGGGCGGAG; experiment: fluorescence titration, 640 nm; conditions: 100 mM KCl or NaCl (so in the source); 20 mM PBS, pH 7.4; 1 µM TGP18; one-site fit
# [3] = tested on: C-MYC GQ (DNA, G4) TGGGGAGGGTGGGGAGGGTGGGGAAGG; experiment: fluorescence titration, 640 nm; conditions: 100 mM KCl or NaCl (so in the source); 20 mM PBS, pH 7.4; 1 µM TGP18; one-site fit
# [4] = tested on: KRAS GQ (DNA, G4) GGGAGGGAGGGAAGGAGGGAGGGAGGGA; experiment: fluorescence titration, 640 nm; conditions: 100 mM KCl or NaCl (so in the source); 20 mM PBS, pH 7.4; 1 µM TGP18; one-site fit
# [5] = tested on: BCL-2 GQ (DNA, G4) CGGGCGCGGGAGGAATTGGGCGGGAGC; experiment: CD melting; conditions: 100 mM KCl; 20 mM PBS, pH 7.4; 2 µM GQ, TGP18 at 1:1 (2 µM)
# [6] = tested on: TEL22 GQ (DNA, G4) AGGGTTAGGGTTAGGGTTAGGG; experiment: fluorescence lifetime (TCSPC); conditions: qualitative; lifetime 1.6 ns against 0.26 ns free; three-fold excess DNA over titration end point
# [7] = tested on: BCL-2 GQ (DNA, G4) CGGGCGCGGGAGGAATTGGGCGGGAGC; experiment: fluorescence titration, 640 nm; conditions: 100 mM KCl or NaCl (so in the source); 20 mM PBS, pH 7.4; 1 µM TGP18; one-site fit
smiles,measurement,setting,value
CCN(CC)c1ccc2cc(C=Cc3ccc4ccc5ccc(C)nc5c4[n+]3C)c(=O)oc2c1,KD,[1],5500 ± 230 nM
same,KD,[2],2120 ± 350 nM
same,KD,[3],1500 ± 190 nM
same,KD,[4],1300 ± 130 nM
same,ΔTm,[5],8 °C
same,binding,[6],yes
same,KD,[7],728 ± 34 nM
